*1 amine or outer side, *2 acyl side, *3 side chain or, on linkers, in order; H or OH if unused. Where a SMILES comes first, the peptide text is derived from it. Bridges are numbered along the chain shown (N, C = ends). [ ]: non-standard residue; d: D form. The star is where a group is joined. ξ: configuration not given here. Phe(3-CF3) = N[C@@H](Cc1cccc(C(F)(F)F)c1)C(=O)O; Ala(morpholin-4-yl) = N[C@@H](CN1CCOCC1)C(=O)O; Phe(4-COOH) = N[C@@H](Cc1ccc(C(=O)O)cc1)C(=O)O; Bip = N[C@@H](Cc1ccc(-c2ccccc2)cc1)C(=O)O; NH(CH2)14COOH = O=C(O)CCCCCCCCCCCCCCN*; Phe(3-Me) = Cc1cccc(C[C@H](N)C(=O)O)c1; βAsp = O=C(O)[C@H](CC(=O)[*:2])N[*:1]; NH(CH2)12COOH = O=C(O)CCCCCCCCCCCCN*; Val(3-OH) = CC(C)(O)[C@H](N)C(=O)O; 4Pal = N[C@@H](Cc1ccncc1)C(=O)O; Cha = N[C@@H](CC1CCCCC1)C(=O)O; Cit = NC(=O)NCCC[C@H](N)C(=O)O; Thr(3ξ) = CC(O)[C@H](N)C(=O)O; Carboxymethyl = O=C(O)C*; NMeA = CN[C@@H](C)C(=O)O; Orn = NCCC[C@H](N)C(=O)O; Aun = NCCCCCCCCCCC(=O)O; Dab = NCC[C@H](N)C(=O)O; Dap = NC[C@H](N)C(=O)O; AEEA = NCCOCCOCC(=O)O; Sar = CNCC(=O)O

The first experiment deals with T1, PD-1/PD-L1 interaction (PE-labeled human PD-L1-Ig binding to Jurkat cell line over-expressing human PD-1) (Homo sapiens, UniProt Q15116).
T1 construct: expressed in transfected cells; host or cells: Jurkat
T1 sequence (Q15116 25-288): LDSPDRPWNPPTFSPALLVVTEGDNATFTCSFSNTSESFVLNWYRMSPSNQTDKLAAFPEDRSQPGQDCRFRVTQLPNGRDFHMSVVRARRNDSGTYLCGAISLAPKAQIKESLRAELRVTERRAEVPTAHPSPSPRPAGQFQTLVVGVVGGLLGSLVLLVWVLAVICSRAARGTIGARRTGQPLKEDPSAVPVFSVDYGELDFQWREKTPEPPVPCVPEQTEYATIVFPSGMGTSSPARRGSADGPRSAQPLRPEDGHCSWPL
Briefly: Jurkat-PD-1 Cell Binding High-Content Screening Assay (CBA). Particulars: Jurkat-hPD-1 cells, PE-labeled PD-L1-Ig 20 nM final; read-out: Jurkat HPD1 PDL1 IC50. On the procedure:
Example 2: Jurkat-PD-1 Cell Binding High-Content Screening Assay (CBA)
Phycoerythrin (PE) was covalently linked to the Ig epitope tag of human PD-L1-Ig and fluorescently-labeled PD-L1-Ig was used for binding studies with a Jurkat cell line over-expressing human PD-1 (Jurkat-PD-1). Briefly, 8×10^3 Jurkat-hPD-1 cells were seeded into 384 well plates in 20 μl of DMEM supplemented with 10% fetal calf serum. 100 nl of compound was added to cells followed by incubation at 37° C. for 2 hours. Then, 5 μl of PE-labeled PD-L1-Ig (20 nM final), diluted in DMEM supplemented with 10% fetal calf serum. After 1 hour incubation, cells were fixed with […] in dPBS containing 10 μg/ml Hoechst 33342 and then washed 3× in 100 μl dPBS. Data was collected and processed using a Cell Insight NXT High Content Imager and associated software.
Broadly, the IC50 is the concentration that gives 50% inhibition. Turning to `CC(=O)NCCC[C@@H]1NC(=O)[C@H](C(C)C)NC(=O)[C@H](CC2CCCCC2)NC(=O)[C@H](CCN)NC(=O)[C@@H](CC(C)C)NC(=O)[C@H](C)N(C)C(=O)[C@H](C(C)C)NC(=O)[C@H](Cc2ccc(-c3ccccc3)cc2)NC(=O)[C@H](CC(C)C)NC(=O)[C@H](Cc2c[nH]c3ccccc23)NC(=O)[C@H](CC(=O)O)NC(=O)[C@H](Cc2ccncc2)NC(=O)[C@H](Cc2ccc(OCC(=O)O)cc2)NC(=O)CSC[C@@H](C(=O)NCC(=O)NCCOCCOCC(=O)N[C@@H](CN)C(=O)NCCCCCCCCCCC(=O)O)NC1=O` [Example 2169] ({CH2CO}-Y(Carboxymethyl)[4Pal]DWL[Bip]V[NMeA][dL][Dab][Cha]V[Orn](Ac)CG[AEEA][Dap][Aun]-OH; thioether N-14), the IC50 stood at 12.6 nM.
On to `CC(C)C[C@H]1NC(=O)[C@H](C)N(C)C(=O)[C@H](Cc2ccc(OCC(=O)O)cc2)NC(=O)[C@H](Cc2ccc(-c3ccccc3)cc2)NC(=O)[C@H](Cc2ccc(OCC(=O)O)cc2)NC(=O)[C@H](Cc2c[nH]c3ccccc23)NC(=O)[C@H](CC(=O)O)NC(=O)[C@H](Cc2ccncc2)NC(=O)[C@H](Cc2ccc(OCC(=O)O)cc2)NC(=O)CSC[C@@H](C(=O)N[C@@H](CCN)C(=O)NCCOCCOCC(=O)NCCCCCCCCCCC(=O)O)NC(=O)[C@H]([C@@H](C)O)NC(=O)[C@H](C(C)C)NC(=O)[C@H](CC2CCCCC2)NC(=O)[C@H](CCN)NC1=O` [Example 1381] ({CH2CO}-Y(Carboxymethyl)[4Pal]DWY(Carboxymethyl)[Bip]Y(Carboxymethyl)[NMeA][dL][Dab][Cha]VTC[Dab][AEEA][Aun]-OH; thioether N-14), for which the IC50 came to 27.4 nM.
Same read-out and setting: next, `Cc1cccc(C[C@@H]2NC(=O)[C@H](CC(=O)O)NC(=O)[C@H](Cc3ccc(C(=O)O)cc3)NC(=O)[C@H](Cc3ccc(OCC(=O)O)cc3)NC(=O)CSC[C@@H](C(=O)NCC(=O)N[C@@H](CC(=O)NCCOCCOCC(=O)N[C@@H](CCC(=O)O)C(=O)NCCOCCOCC(=O)NCCCCCCCCCCC(=O)O)C(=O)O)NC(=O)[C@H](CO)NC(=O)[C@H](C(C)C)NC(=O)[C@H](CC(C)C)NC(=O)[C@H](CC(N)=O)NC(=O)[C@@H](CC(C)C)NC(=O)[C@H](C)N(C)C(=O)[C@H](C(C)C)NC(=O)[C@H](Cc3ccc(-c4ccccc4)cc3)NC(=O)[C@H](CC(C)C)NC2=O)c1` [Example 1023] ({CH2CO}-Y(Carboxymethyl)[Phe(4-COOH)]D[Phe(3-Me)]L[Bip]V[NMeA][dL]NLVSCG[βAsp][AEEA]E[AEEA][Aun]-OH; thioether N-14): 119 nM; `CC(C)C[C@H]1NC(=O)[C@H](C)N(C)C(=O)[C@H](CCCNC(N)=O)NC(=O)[C@H](Cc2ccc(-c3ccccc3)cc2)NC(=O)[C@H](Cc2ccc(C(=O)O)cc2)NC(=O)[C@H](Cc2cccc(C(F)(F)F)c2)NC(=O)[C@H](CC(=O)O)NC(=O)[C@H](Cc2ccc(OCC(=O)O)cc2)NC(=O)[C@H](CN2CCOCC2)NC(=O)CSC[C@@H](C(=O)N[C@@H](CCN)C(=O)NCCCCCCCCCCCCC(=O)O)NC(=O)[C@H](CO)NC(=O)[C@H](C(C)(C)O)NC(=O)[C@H](CC2CCCCC2)NC(=O)[C@H](CCN)NC1=O` [Example 1156] ({CH2CO}-[Ala(morpholin-4-yl)]Y(Carboxymethyl)D[Phe(3-CF3)][Phe(4-COOH)][Bip][Cit][NMeA][dL][Dab][Cha][Val(3-OH)]SC[Dab]-{NH(CH2)12COOH}; thioether N-14): 15.1 nM; `Cc1cccc(C[C@@H]2NC(=O)[C@H](CC(=O)O)NC(=O)[C@H](Cc3ccc(O)cc3)NC(=O)[C@H](Cc3ccccc3)NC(=O)CSC[C@@H](C(=O)N[C@@H](CCN)C(=O)NCCCCCCCCCCC(=O)O)NC(=O)[C@H](CCCN)NC(=O)[C@H](C(C)C)NC(=O)[C@H](CC(C)C)NC(=O)[C@H](CCN)NC(=O)[C@@H](C)NC(=O)[C@H](C)N(C)C(=O)[C@H](C(C)C)NC(=O)[C@H](Cc3ccc(-c4ccccc4)cc3)NC(=O)[C@H](CC(C)C)NC2=O)c1` [Example 2198] ({CH2CO}-FYD[Phe(3-Me)]L[Bip]V[NMeA][dA][Dab]LV[Orn]C[Dab][Aun]-OH; thioether N-14): 73 nM.
Still for that read-out and setting: then `CC(=O)NCCCC[C@@H]1NC(=O)[C@H](C(C)C)NC(=O)[C@H](CC2CCCCC2)NC(=O)[C@H](CCN)NC(=O)[C@@H](CC(C)C)NC(=O)[C@H](C)N(C)C(=O)[C@H](Cc2ccc(O)cc2)NC(=O)[C@H](Cc2ccc(-c3ccccc3)cc2)NC(=O)[C@H](C(C)C)NC(=O)[C@H](Cc2cccc(C)c2)NC(=O)[C@H](CC(=O)O)NC(=O)[C@H](Cc2ccc(OCC(=O)O)cc2)NC(=O)[C@H](CCCNC(=N)N)NC(=O)CSC[C@@H](C(=O)N(C)CC(=O)NCCCCCCCCCCC(=O)O)NC1=O` [Example 2273] ({CH2CO}-RY(Carboxymethyl)D[Phe(3-Me)]V[Bip]Y[NMeA][dL][Dab][Cha]VK(Ac)C[Sar][Aun]-OH; thioether N-14), with 321 nM; and `CC(C)C[C@@H]1NC(=O)[C@H](Cc2c[nH]c3ccccc23)NC(=O)[C@H](CC(=O)O)NC(=O)[C@H](Cc2ccc(OCC(=O)O)cc2)NC(=O)[C@H](Cc2ccc(OCC(=O)O)cc2)NC(=O)CSC[C@@H](C(=O)NCCOCCOCC(=O)NCCCCCCCCCCC(=O)O)NC(=O)[C@H](CO)NC(=O)[C@H](Cc2cnc[nH]2)NC(=O)[C@H](CC2CCCCC2)NC(=O)[C@H](CCN)NC(=O)[C@@H](CC(C)C)NC(=O)[C@H](C)N(C)C(=O)[C@H](C(C)C)NC(=O)[C@H](Cc2ccc(-c3ccccc3)cc2)NC1=O` [Example 2445] ({CH2CO}-Y(Carboxymethyl)Y(Carboxymethyl)DWL[Bip]V[NMeA][dL][Dab][Cha]HSC[AEEA][Aun]-OH; thioether N-14), with 46.5 nM; and `Cc1cccc(C[C@@H]2NC(=O)[C@H](CC(=O)O)NC(=O)[C@H](Cc3ccc(OCC(=O)O)cc3)NC(=O)[C@H](C(C)O)NC(=O)CSC[C@@H](C(=O)N[C@H](CC(N)=O)C(=O)NCCCCCCCCCCC(=O)O)NC(=O)[C@H](CCCN)NC(=O)[C@H](C(C)C)NC(=O)[C@H](CC3CCCCC3)NC(=O)[C@H](CCN)NC(=O)[C@@H](CC(C)C)NC(=O)[C@H](C)N(C)C(=O)[C@H](Cc3ccc(O)cc3)NC(=O)[C@H](Cc3ccc(-c4ccccc4)cc3)NC(=O)[C@H](C(C)C)NC2=O)c1` (stereo partly drawn) [Example 2241] ({CH2CO}-[Thr(3ξ)]Y(Carboxymethyl)D[Phe(3-Me)]V[Bip]Y[NMeA][dL][Dab][Cha]V[Orn]C[dN][Aun]-OH; thioether N-14), with 10.2 nM.
On the same count and under the same terms, then `CC(C)C[C@@H]1NC(=O)[C@H](Cc2c[nH]c3ccccc23)NC(=O)[C@H](CC(=O)O)NC(=O)[C@H](Cc2ccc(C(=O)O)cc2)NC(=O)[C@H](Cc2ccc(OCC(=O)O)cc2)NC(=O)CSC[C@@H](C(=O)N[C@@H](CCN)C(=O)NCCOCCOCC(=O)NCCCCCCCCCCC(=O)O)NC(=O)[C@H](CCCCN)NC(=O)[C@H](C(C)C)NC(=O)[C@H](CC2CCCCC2)NC(=O)[C@H](CCN)NC(=O)[C@@H](CC(C)C)NC(=O)[C@H](C)N(C)C(=O)[C@H](C(C)C)NC(=O)[C@H](Cc2ccc(-c3ccccc3)cc2)NC1=O` [Example 2192] ({CH2CO}-Y(Carboxymethyl)[Phe(4-COOH)]DWL[Bip]V[NMeA][dL][Dab][Cha]VKC[Dab][AEEA][Aun]-OH; thioether N-14), with 7.6 nM.

Still in this experiment, the particulars now being: PE-labeled PD-L1-Ig 20 nM final, Jurkat-hPD-1 cells; read-out: Jurkat HPD1 PDL1 IC50.
Take `Cc1cccc(C[C@@H]2NC(=O)[C@H](CC(=O)O)NC(=O)[C@H](Cc3ccc(OCC(=O)O)cc3)NC(=O)[C@H](Cc3ccncc3)NC(=O)CSC[C@@H](C(=O)N[C@@H](CCCN)C(=O)NCCOCCOCC(=O)NCCCCCCCCCCC(=O)O)NC(=O)[C@H](CCC(=O)O)NC(=O)[C@H](C(C)(C)O)NC(=O)[C@H](CC3CCCCC3)NC(=O)[C@H](CCN)NC(=O)[C@@H](CC(C)C)NC(=O)[C@H](C)N(C)C(=O)[C@H](Cc3ccc(C(=O)O)cc3)NC(=O)[C@H](Cc3ccc(-c4ccccc4)cc3)NC(=O)[C@H](Cc3ccc(C(=O)O)cc3)NC2=O)c1` [Example 2497] ({CH2CO}-[4Pal]Y(Carboxymethyl)D[Phe(3-Me)][Phe(4-COOH)][Bip][Phe(4-COOH)][NMeA][dL][Dab][Cha][Val(3-OH)]EC[Orn][AEEA][Aun]-OH; thioether N-14): the IC50 turned out to be 32.5 nM.
The same measure, in the same setting: then `CC(C)C[C@H]1NC(=O)[C@H](C)N(C)C(=O)[C@H](Cc2ccc(C(=O)O)cc2)NC(=O)[C@H](Cc2ccc(-c3ccccc3)cc2)NC(=O)[C@H](Cc2ccc(C(=O)O)cc2)NC(=O)[C@H](Cc2cccc(C(F)(F)F)c2)NC(=O)[C@H](CC(=O)O)NC(=O)[C@H](Cc2ccc(C(=O)O)cc2)NC(=O)[C@H](C(C)O)NC(=O)CSC[C@@H](C(=O)N[C@@H](CCN)C(=O)NCCOCCOCC(=O)NCCOCCOCC(=O)NCCCCCCCCCCCCCCC(=O)O)NC(=O)[C@H](CCC(=O)O)NC(=O)[C@H](C(C)C)NC(=O)[C@H](CC2CCCCC2)NC(=O)[C@H](CCN)NC1=O` (stereo partly drawn) [Example 2613] ({CH2CO}-[Thr(3ξ)][Phe(4-COOH)]D[Phe(3-CF3)][Phe(4-COOH)][Bip][Phe(4-COOH)][NMeA][dL][Dab][Cha]VEC[Dab][AEEA][AEEA]-{NH(CH2)14COOH}; thioether N-14), with 383 nM; and `CC(C)C[C@H]1NC(=O)[C@H](C)N(C)C(=O)[C@H](CCC(N)=O)NC(=O)[C@H](Cc2ccc(-c3ccccc3)cc2)NC(=O)[C@H](Cc2ccc(OCC(=O)O)cc2)NC(=O)[C@H](Cc2cccc(C(F)(F)F)c2)NC(=O)[C@H](CC(=O)O)NC(=O)[C@H](Cc2ccc(OCC(=O)O)cc2)NC(=O)[C@H](Cc2cnc[nH]2)NC(=O)CSC[C@@H](C(=O)N[C@@H](CCN)C(=O)NCCCCCCCCCCCCC(=O)O)NC(=O)[C@H](CCC(=O)O)NC(=O)[C@H](C(C)(C)O)NC(=O)[C@H](CC2CCCCC2)NC(=O)[C@H](CCN)NC1=O` [Example 2630] ({CH2CO}-HY(Carboxymethyl)D[Phe(3-CF3)]Y(Carboxymethyl)[Bip]Q[NMeA][dL][Dab][Cha][Val(3-OH)]EC[Dab]-{NH(CH2)12COOH}; thioether N-14), with 9.5 nM.

Source of the values: patent US20260070945A1, “MACROCYCLIC IMMUNOMODULATORS” (Bristol-Myers Squibb Company, priority 2022, published 2026).
